How the values were obtained:
HLE [1] = target: T1, HLE (Homo sapiens, UniProt P08246); assay: Inactivation of human leucocyte elastase (progress curve method); assay type: biochemical; details: pH 8.0, 25°C, read-out: ki/KI or kobs/[I], HLE
T1 construct: purchased Elastase Products Co
T1 sequence (P08246 30-267): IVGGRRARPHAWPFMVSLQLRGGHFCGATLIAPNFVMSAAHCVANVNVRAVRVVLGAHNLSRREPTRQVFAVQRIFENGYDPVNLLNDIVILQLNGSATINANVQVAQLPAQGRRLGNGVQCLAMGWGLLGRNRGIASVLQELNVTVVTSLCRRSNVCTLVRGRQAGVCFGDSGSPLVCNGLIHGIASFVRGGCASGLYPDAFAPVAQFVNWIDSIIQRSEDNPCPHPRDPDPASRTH
Description: Bovine α-CT and LMW-uPA (MW=33 000 Da) were purchased from Sigma, HMW-uPA (MW=54 000 Da) from Choay, trypsin (TRY) and THR from Boehringer-Indelheim (Germany), and MMP-2 and MMP-9 from Calbiochem. Human leucocyte elastase and PM were from Elastase Products Co. and Biogenic, respectively. Except for THR, HMW-uPA, MMP-2 and MMP-9, enzyme concentrations were determined by active-site titrations using the appropriate titrant ([Bender et al, 1966]; [Chase and Shaw, 1970]; [Powers and Gupton, 1977]). […]
The kinetic parameters for the inhibition were determined either by the preincubation method for LMW-uPA and PM (small aliquots of the reaction mixture were withdrawn at intervals of time and the remaining activity determined), or by the progress curve method (HLE) when the inhibition was too fast to be measured accurately using the preincubation method. […]
At low inhibitor concentrations, the ratio ki/KI was obtained as kobs/[I]0. […] In the progress curve method, the substrate competes with the inhibitor and the kinetic parameters are determined as previously described ([Doucet et al, 1999]). […]

MMP-9 = target: T2, MMP-9 (Homo sapiens, UniProt P14780); assay: Inhibition of purified MMP-9; assay type: biochemical; details: purified enzyme, pH 7.5, 25°C
T2 construct: purchased Calbiochem
T2 sequence (P14780 94-707, species assumed): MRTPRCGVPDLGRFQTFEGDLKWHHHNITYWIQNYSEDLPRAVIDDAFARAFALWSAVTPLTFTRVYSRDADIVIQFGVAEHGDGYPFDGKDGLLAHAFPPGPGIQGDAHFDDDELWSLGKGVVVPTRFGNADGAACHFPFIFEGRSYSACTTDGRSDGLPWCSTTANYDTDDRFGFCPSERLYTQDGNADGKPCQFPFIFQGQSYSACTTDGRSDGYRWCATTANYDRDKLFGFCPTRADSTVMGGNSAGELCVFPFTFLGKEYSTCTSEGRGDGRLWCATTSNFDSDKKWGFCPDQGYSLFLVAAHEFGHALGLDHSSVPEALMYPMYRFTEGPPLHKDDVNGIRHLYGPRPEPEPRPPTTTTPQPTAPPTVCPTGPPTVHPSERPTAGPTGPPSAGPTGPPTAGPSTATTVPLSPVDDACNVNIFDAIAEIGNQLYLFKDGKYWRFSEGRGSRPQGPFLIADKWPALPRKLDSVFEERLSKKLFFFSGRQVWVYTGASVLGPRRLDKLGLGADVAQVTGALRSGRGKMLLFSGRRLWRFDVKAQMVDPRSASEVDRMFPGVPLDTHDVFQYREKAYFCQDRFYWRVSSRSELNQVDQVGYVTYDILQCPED
Description: Bovine α-CT and LMW-uPA (MW=33 000 Da) were purchased from Sigma, HMW-uPA (MW=54 000 Da) from Choay, trypsin (TRY) and THR from Boehringer-Indelheim (Germany), and MMP-2 and MMP-9 from Calbiochem. Human leucocyte elastase and PM were from Elastase Products Co. and Biogenic, respectively. Except for THR, HMW-uPA, MMP-2 and MMP-9, enzyme concentrations were determined by active-site titrations using the appropriate titrant ([Bender et al, 1966]; [Chase and Shaw, 1970]; [Powers and Gupton, 1977]). Several enzymes were assayed spectrophotometrically at 405 nm using the following p-nitroanilide substrates: succininyl-Ala2-Pro-Phe-p-nitroanilide (Suc-AAPF-p-NA), benzoyl-Arg-p-nitroanilide (Bz-R-p-NA) and methoxysuccinyl-Ala2-Pro-Val-p-nitroanilide (MeO-Suc-AAPV-p-NA) for α-CT, TRY and HLE, respectively (obtained from Sigma); or S-2238 ([…]), S-2444 (<Glu-Gly-Arg-p-nitroanilide) and S-2251 (H-D-Val-Leu-Lys-p-nitroanilide) for THR, HMW- and LMW-uPA, and PM, respectively (from Biogenic). Matrix metalloprotease-2 previously activated by treatment with APMA were assayed at 412 nm with the thiopeptide Ac-Pro-Leu-Gly-^Sleu-Leu-Gly-Oet in the presence of 5,5′-dithiobis(2-nitrobenzenic) acid (DTNB). […]

MDA-MB231 cells = assay: Tumorigenicity of MDA-MB231 cells injected s.c. with matrigel in nude mice; assay type: in vivo; details: 30 mg kg^−1 i.p. three times per week
Description: Matrigel (basement membrane proteins) was extracted from the mouse Engelbreth–Holm–Swarm (EHS) tumour as previously described ([Noël et al, 1991]). Tumoral cells were detached by trypsinisation, harvested by centrifugation, resuspended in 0.25 ml of serum-free medium and mixed with an equal volume of cold matrigel (10 mg ml^−1). The suspension (1 × 10^6 cells injection site^−1) was injected subcutaneously (s.c.) on both body flanks of 6–8-week-old female athymic nude mice (n=6; nu/nu Swiss mice from Iffa credo, L'Arbresle, France). The coumarin derivatives in PBS were injected intraperitoneally (30 mg kg^−1) three times per week during the whole assay.
The tumorigenicity defines the capacity of cells to induce tumour formation. The larger (a) and smaller (b) diameters of the apparent tumour were measured and served for tumour volume calculation according to a × b^2 × 0.4 ([Attia and Weiss, 1966]). Injected mice were examined weekly. Tumours presenting a volume higher than 80 mm^3 and which maintained a progressive growth were taken into account ([Noël et al, 1992]). Results are expressed as the mean (±s.e.m.) of the tumour volumes.

α-CT = details: pH 7.5, 25°C; ref Pochet et al (2000); cited from earlier work
HLE [2] = target: T1, HLE; details: pH 8.0, 25°C; ref Pochet et al (2000); cited from earlier work

Row | Structure (SMILES) | kinact/KI (HLE [1]) | inhibition of MMP-9 (MMP-9) | effect on tumour incidence, MDA-MB231 (MDA-MB231 cells) | effect on tumour growth, MDA-MB231 (MDA-MB231 cells; ANOVA, P<0.05) | melting point | ki/KI or kobs/[I], α-CT (α-CT) | ki/KI or kobs/[I], HLE (HLE [2])
1 | CC(=O)OCc1ccc2oc(=O)c(C(=O)Oc3cccc(Br)c3)cc2c1 [compound 7, 3-bromophenyl 6-acetoxy-methyl-2-oxo-2H-1-benzopyran-3-carboxylate] | 2190 M⁻¹ s⁻¹ | not affected | did not affect tumour incidence | reduced significantly tumour growth | 141 to 142 °C | – | –
2 | CC(=O)OCc1ccc2oc(=O)c(C(=O)Oc3cccc(Cl)c3)cc2c1 [compound 4, 3-chlorophenyl 6-acetoxymethyl-2-oxo-2H-1-benzopyran-3-carboxylate] | – | not affected | – | – | – | 20000^a M^−1 s^−1 | 1440^a M^−1 s^−1
